Assay results reported in the supplement of paper PMC10307832.

Legend:
Test in all cases: relative viability (nuclei count vs DMSO), 5 days (fraction); higher = more cells survive
[1] = compound: CC1=CC(=CC=C1)NC2=NC(=CS2)C3=CC=NC=C3 + CC(=O)c1c(C)c2cnc(Nc3ccc(N4CCNCC4)cn3)nc2n(C2CCCC2)c1=O [Palbociclib] (partner 0.5 µM)
How it was run: (§1)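 For relative viability, nuclei counts in treated wells were divided by those in vehicle wells. Lung cancer cell lines had been pin-tool dosed in 1536-well plates the day after seeding and cultured for 5 days, then fixed and stained in one step (final 0.05% Triton X-100, 1% formaldehyde, 1 ug/ml Hoechst) and imaged at 4×. Doses were one drug alone or a fixed anchor-drug dose plus five library-drug doses (not always all listed) in √10 steps, and values are duplicate-plate medians.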

Masitinib + Bortezomib = compound: Cc1ccc(NC(=O)c2ccc(CN3CCN(C)CC3)cc2)cc1Nc1nc(-c2cccnc2)cs1 [Masitinib] + CC(C)C[C@H](NC(=O)[C@H](Cc1ccccc1)NC(=O)c1cnccn1)B(O)O [Bortezomib] (partner 0.002 µM)
How it was run: as §1

[2] = compound: CC1=CC(=CC=C1)NC2=NC(=CS2)C3=CC=NC=C3 + C[C@@H](Oc1cc(-c2cnn(C3CCNCC3)c2)cnc1N)c1c(Cl)ccc(F)c1Cl [Crizotinib] (partner 1 µM)
How it was run: as §1

Masitinib + Vorinostat = compound: Cc1ccc(NC(=O)c2ccc(CN3CCN(C)CC3)cc2)cc1Nc1nc(-c2cccnc2)cs1 [Masitinib] + O=C(CCCCCCC(=O)Nc1ccccc1)NO [Vorinostat] (partner 1 µM)
How it was run: as §1

Cell Line	relative viability ([1]; first compound 0.08 µM)	relative viability ([1]; first compound 0.253 µM)	relative viability ([1]; first compound 0.8 µM)	relative viability ([1]; first compound 2.53 µM)	relative viability ([1]; first compound 8 µM)	relative viability (Masitinib + Bortezomib; first compound 0.01 µM)	relative viability (Masitinib + Bortezomib; first compound 0.03162 µM)	relative viability (Masitinib + Bortezomib; first compound 0.1 µM)	relative viability (Masitinib + Bortezomib; first compound 0.3162 µM)	relative viability (Masitinib + Bortezomib; first compound 1 µM)	relative viability ([2]; first compound 0.08 µM)	relative viability ([2]; first compound 0.253 µM)	relative viability ([2]; first compound 0.8 µM)	relative viability ([2]; first compound 2.53 µM)	relative viability ([2]; first compound 8 µM)	relative viability (Masitinib + Vorinostat; first compound 0.01 µM)	relative viability (Masitinib + Vorinostat; first compound 0.03162 µM)	relative viability (Masitinib + Vorinostat; first compound 0.1 µM)	relative viability (Masitinib + Vorinostat; first compound 0.3162 µM)	relative viability (Masitinib + Vorinostat; first compound 1 µM)
201T	0.401	0.319	0.359	0.348	0.336	0.918	1.09	0.99	1.09	1.07	1.01	0.993	0.955	1.06	0.869	0.74	1.05	0.774	0.78	0.914
A549	–	–	–	–	–	–	–	–	–	–	0.75	0.73	0.776	0.735	0.627	–	–	–	–	–
A-427	0.473	0.531	0.485	0.538	0.5	–	0.977	–	0.99	1.06	0.851	0.944	0.751	–	0.692	0.608	0.827	0.791	0.826	0.827
ABC-1	0.627	–	0.944	0.795	0.473	0.324	0.296	0.287	0.306	0.256	0.851	0.893	1.03	0.934	1.19	1.05	0.997	1.44	1.15	0.877
BEN	0.457	0.521	0.424	0.489	0.482	1.15	0.662	0.874	0.666	0.831	1.11	0.948	0.879	0.779	0.76	0.616	0.533	0.557	0.528	0.557
CAL-12T	0.402	0.414	0.391	0.329	0.586	0.852	1.05	1.06	1.07	0.713	0.547	0.634	0.612	0.62	0.604	0.942	0.756	0.904	0.986	0.684
COR-L23	0.256	0.251	0.232	0.279	0.303	0.924	0.806	1.11	1.26	0.972	0.553	0.483	0.487	0.646	0.583	0.532	0.411	0.435	0.46	0.373
COR-L 105	0.353	0.45	0.391	0.421	0.33	0.695	0.699	0.823	0.823	0.725	0.626	0.604	0.634	0.701	0.468	0.741	1.09	0.971	0.78	0.841
Calu-6	–	–	–	–	–	0.903	1.04	1.07	0.774	0.876	0.698	0.639	0.619	0.634	0.727	–	–	–	–	–
ChaGo-K-1	0.9	0.961	0.946	0.943	0.859	1.04	1.05	1.35	1.12	0.962	1.08	1.07	1.14	1.07	1.15	0.901	0.711	0.853	0.775	0.732
EBC-1	–	–	–	–	–	0.493	0.518	0.514	0.479	0.573	0.176	0.218	0.198	0.17	0.163	–	–	–	–	–
EKVX	0.36	0.384	–	0.39	0.268	–	1.04	1.05	0.444	0.671	0.907	0.893	0.795	0.801	0.497	0.626	0.653	0.643	0.678	0.696
EMC-BAC-2	0.495	0.496	0.526	0.504	0.454	0.942	1.04	0.974	1.15	1.05	0.642	0.7	0.717	0.643	0.729	0.38	–	0.441	0.445	0.335
EPLC-272H	0.309	0.315	0.372	–	0.332	0.97	0.85	0.917	1.16	0.839	0.854	–	0.877	–	0.885	0.4	–	0.392	0.464	0.425
H3255	0.358	0.332	0.363	0.306	0.318	–	0.858	0.601	0.459	0.755	0.721	0.926	0.821	0.795	0.853	0.9	0.9	0.544	0.584	0.761
HARA	0.238	0.237	0.196	0.222	0.324	1.05	1.09	1.18	1.17	1.04	0.804	1	0.994	0.998	0.986	0.498	0.539	0.57	0.521	0.485
HCC-15	0.74	0.641	0.631	0.562	0.653	0.714	1.09	0.847	1.21	1.04	0.826	0.807	0.777	0.833	0.79	0.789	0.814	0.868	0.827	0.811
HCC-44	0.912	0.779	0.851	0.874	0.805	0.765	0.778	0.854	0.773	0.857	0.704	0.585	0.651	0.722	0.691	0.914	1.1	1.06	1.06	1.03
